The results in this text go back to patent US12685735B2 (Foghorn Therapeutics Inc., priority 2020, dated 2026).

The target of one assay is BRG-1 (Homo sapiens, UniProt P51532). In words: ATPase catalytic activity assay of BRG-1 (ADP-Glo). The format is biochemical. The following applies: ATPase catalytic activity, ADP-Glo; for IC50: read-out: BRG1 IC50 (μM)*; for Emax: read-out: BRG1 Max % Inhibition. In a few lines:
(§1)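 Two room-temperature incubations follow the reaction: 40 min to eliminate unused ATP, then 60 min to turn ADP into ATP driving luciferase light output. Activity is read as luminescence proportional to ADP formed.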
(In general: In ADP-Glo the light output rises with the ADP produced.)

A further assay addresses BRM (Homo sapiens, UniProt P51531). In words: ATPase catalytic activity assay of BRM (ADP-Glo). The format is biochemical. The settings on record: for IC50: read-out: BRM IC50 (μM)*. In a few lines: as §1

BRM, sequence (P51531 whole entry): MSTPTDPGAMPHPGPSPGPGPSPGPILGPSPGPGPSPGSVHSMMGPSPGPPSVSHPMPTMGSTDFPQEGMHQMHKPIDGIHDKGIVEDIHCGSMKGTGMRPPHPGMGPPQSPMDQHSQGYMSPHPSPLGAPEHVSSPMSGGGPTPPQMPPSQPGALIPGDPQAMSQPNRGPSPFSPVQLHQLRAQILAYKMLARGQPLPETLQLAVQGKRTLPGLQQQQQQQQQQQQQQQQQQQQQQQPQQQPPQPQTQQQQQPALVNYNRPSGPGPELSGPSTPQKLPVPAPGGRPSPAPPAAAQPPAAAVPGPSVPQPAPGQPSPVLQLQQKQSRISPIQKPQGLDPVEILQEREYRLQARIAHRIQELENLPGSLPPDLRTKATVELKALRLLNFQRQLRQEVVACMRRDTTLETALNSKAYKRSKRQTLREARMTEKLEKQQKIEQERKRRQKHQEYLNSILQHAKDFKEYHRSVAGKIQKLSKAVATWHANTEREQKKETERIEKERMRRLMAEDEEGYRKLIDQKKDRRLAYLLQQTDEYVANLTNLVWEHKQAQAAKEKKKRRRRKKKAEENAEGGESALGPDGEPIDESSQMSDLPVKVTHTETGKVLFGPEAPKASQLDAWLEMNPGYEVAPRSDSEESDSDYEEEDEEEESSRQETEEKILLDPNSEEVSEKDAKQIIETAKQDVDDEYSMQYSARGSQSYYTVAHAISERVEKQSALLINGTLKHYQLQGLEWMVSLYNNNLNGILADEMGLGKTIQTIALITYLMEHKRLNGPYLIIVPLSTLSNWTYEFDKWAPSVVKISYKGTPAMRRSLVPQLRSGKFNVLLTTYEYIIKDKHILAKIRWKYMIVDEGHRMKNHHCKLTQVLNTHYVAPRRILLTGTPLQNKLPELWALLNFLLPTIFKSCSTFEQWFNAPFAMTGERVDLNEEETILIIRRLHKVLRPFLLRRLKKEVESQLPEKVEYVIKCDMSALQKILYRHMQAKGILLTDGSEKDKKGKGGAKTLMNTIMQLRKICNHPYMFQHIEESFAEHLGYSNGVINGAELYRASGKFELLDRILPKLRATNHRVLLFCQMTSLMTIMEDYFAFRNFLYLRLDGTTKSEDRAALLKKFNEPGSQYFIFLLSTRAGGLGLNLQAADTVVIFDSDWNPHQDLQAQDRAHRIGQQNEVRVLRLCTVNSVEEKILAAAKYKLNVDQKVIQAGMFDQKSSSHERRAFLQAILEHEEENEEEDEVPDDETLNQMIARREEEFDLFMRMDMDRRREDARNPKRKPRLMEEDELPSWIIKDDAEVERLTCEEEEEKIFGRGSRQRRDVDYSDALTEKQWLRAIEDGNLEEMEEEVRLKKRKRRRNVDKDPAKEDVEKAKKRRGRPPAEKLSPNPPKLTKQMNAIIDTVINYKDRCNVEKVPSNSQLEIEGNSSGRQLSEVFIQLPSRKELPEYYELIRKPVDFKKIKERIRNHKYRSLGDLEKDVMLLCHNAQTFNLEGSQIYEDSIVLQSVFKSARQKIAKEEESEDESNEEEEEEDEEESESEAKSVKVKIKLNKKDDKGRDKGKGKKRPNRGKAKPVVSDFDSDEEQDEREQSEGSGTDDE
BRG-1, sequence (P51532 whole entry): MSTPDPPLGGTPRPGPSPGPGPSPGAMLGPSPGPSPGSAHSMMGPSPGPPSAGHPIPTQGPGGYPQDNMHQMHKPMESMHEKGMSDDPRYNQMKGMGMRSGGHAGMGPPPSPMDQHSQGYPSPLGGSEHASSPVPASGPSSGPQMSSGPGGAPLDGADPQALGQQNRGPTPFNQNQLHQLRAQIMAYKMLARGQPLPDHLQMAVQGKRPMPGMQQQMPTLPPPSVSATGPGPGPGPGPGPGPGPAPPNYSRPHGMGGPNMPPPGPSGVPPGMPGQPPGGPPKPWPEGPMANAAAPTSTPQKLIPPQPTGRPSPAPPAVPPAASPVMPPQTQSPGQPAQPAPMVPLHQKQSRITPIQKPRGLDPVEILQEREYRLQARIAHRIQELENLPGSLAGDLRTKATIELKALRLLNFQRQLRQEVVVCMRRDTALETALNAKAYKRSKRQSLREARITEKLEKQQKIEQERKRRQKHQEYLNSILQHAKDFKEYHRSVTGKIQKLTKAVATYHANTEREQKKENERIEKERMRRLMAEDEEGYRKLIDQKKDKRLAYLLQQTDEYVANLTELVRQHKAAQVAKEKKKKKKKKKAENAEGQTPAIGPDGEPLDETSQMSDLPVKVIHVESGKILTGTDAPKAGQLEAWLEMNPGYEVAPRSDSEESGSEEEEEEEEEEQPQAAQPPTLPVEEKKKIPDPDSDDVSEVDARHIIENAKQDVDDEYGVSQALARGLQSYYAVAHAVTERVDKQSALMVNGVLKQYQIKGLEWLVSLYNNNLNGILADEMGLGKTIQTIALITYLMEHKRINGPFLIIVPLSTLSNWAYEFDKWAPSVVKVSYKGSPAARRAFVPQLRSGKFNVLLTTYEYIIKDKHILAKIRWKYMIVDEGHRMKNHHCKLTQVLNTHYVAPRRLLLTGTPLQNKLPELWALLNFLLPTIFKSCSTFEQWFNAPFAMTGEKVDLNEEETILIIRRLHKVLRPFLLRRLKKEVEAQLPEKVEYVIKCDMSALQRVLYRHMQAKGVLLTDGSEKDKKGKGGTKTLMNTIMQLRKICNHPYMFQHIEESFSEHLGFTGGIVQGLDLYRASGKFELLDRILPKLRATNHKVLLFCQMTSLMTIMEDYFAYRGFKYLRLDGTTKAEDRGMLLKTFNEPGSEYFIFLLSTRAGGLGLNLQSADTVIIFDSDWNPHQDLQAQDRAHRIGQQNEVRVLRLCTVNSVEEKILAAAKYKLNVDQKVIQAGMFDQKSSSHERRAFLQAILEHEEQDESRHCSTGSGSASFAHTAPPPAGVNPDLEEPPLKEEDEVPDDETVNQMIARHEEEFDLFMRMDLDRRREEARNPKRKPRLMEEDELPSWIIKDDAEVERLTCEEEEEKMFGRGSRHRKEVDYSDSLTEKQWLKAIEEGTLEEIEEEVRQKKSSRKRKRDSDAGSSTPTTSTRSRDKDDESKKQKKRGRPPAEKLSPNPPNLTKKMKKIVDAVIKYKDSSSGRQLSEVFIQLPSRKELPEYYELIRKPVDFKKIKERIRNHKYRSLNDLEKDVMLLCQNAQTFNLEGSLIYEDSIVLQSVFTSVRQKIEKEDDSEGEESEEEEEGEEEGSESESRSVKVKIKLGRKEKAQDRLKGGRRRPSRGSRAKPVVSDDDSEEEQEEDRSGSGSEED

Usually IC50 stands for the concentration needed to halve the response being measured. For the molecule `COc1cc(F)cc(-c2csc(NC(=O)CNC(=O)c3ccc4c(c3)[C@](C)(F)COC4)n2)c1` [Compound 337, (S)-4-fluoro-N-(2-((4-(3-fluoro-5-methoxyphenyl)thiazol-2-yl)amino)-2-oxoethyl)-4-methylisochromane-6-carboxamide], at BRG-1, the IC50 is less than 0.1 µM and the Emax is greater than 95%. In addition, on BRM, the “BRM Max % Inhibition” value is greater than 95% and the IC50 is less than 0.1 µM.
With `C[C@@H]1CN(c2cccc(-c3csc(NC(=O)CNC(=O)c4ccc5c(c4)CCCCO5)n3)n2)C[C@H](C)O1` [Compound 338, N-(2-((4-(6-((cis)-2,6-dimethylmorpholino)pyridin-2-yl)thiazol-2-yl)amino)-2-oxoethyl)-2,3,4,5-tetrahydrobenzo[b]oxepine-7-carboxamide], at BRG-1, the IC50 is 0.1 to 1 µM and the Emax is greater than 90%. Moreover, on BRM, the “BRM Max % Inhibition” value was greater than 90% and the IC50 was in the range of 0.1 to 1 µM.
In the case of `C[C@@]1(C#N)COCc2ccc(C(=O)NCC(=O)Nc3nc(-c4cc(F)c5c(c4)OCO5)cs3)cc21` [Compound 339, (R)-4-cyano-N-(2-((4-(7-fluorobenzo[d][1,3]dioxol-5-yl)thiazol-2-yl)amino)-2-oxoethyl)-4-methylisochromane-6-carboxamide], at BRG-1, the 50% inhibitory concentration (IC50) was less than 0.1 µM and the Emax is greater than 95%. At BRM, the “BRM Max % Inhibition” value is reported as greater than 95% and the IC50 is less than 0.1 µM.
Consider `CC1CC(c2cccc(-c3csc(NC(=O)CNC(=O)c4ccc5c(c4)[C@](C)(C#N)COC5)n3)c2)O1` (stereo partly drawn) [Compound 340, (R)-4-cyano-4-methyl-N-(2-((4-(3-(4-methyloxetan-2-yl)phenyl)thiazol-2-yl)amino)-2-oxoethyl)isochromane-6-carboxamide], for which, at BRG-1, the IC50 was 0.1 to 1 µM and the Emax is greater than 95%. In addition, on BRM, the “BRM Max % Inhibition” value was greater than 95% and the half-maximal inhibitory concentration (IC50) was less than 0.1 µM.
With `C[C@@]1(F)COCc2ccc(C(=O)NCC(=O)Nc3nc(-c4cccc(C(F)F)c4)cs3)cc21` [Compound 341, (S)-N-(2-((4-(3-(difluoromethyl)phenyl)thiazol-2-yl)amino)-2-oxoethyl)-4-fluoro-4-methylisochromane-6-carboxamide], at BRG-1, the IC50 fell in the range of 0.1 to 1 µM and the Emax is greater than 95%. At BRM, the “BRM Max % Inhibition” value is on record as greater than 95% and the IC50 is less than 0.1 µM.
As for `C[C@@]1(C#N)COCc2ccc(C(=O)NCC(=O)Nc3nc(-c4cccc(N5CC(F)(F)C5)c4)cs3)cc21` [Compound 342, (R)-4-cyano-N-(2-((4-(3-(3,3-difluoroazetidin-1-yl)phenyl)thiazol-2-yl)amino)-2-oxoethyl)-4-methylisochromane-6-carboxamide], on BRG-1, the half-maximal inhibitory concentration (IC50) is 0.1 to 1 µM and the Emax was greater than 95%. Further, on BRM, the “BRM Max % Inhibition” value is reported as greater than 95% and the IC50 is less than 0.1 µM.
On the same counts, the results for `O=C(CNC(=O)c1cccc(C2(C(F)F)COC2)c1)Nc1nc(-c2cccc(C(F)F)c2)cs1` [Compound 344, 3-(3-(difluoromethyl)oxetan-3-yl)-N-(2-((4-(3-(difluoromethyl)phenyl)thiazol-2-yl)amino)-2-oxoethyl)benzamide] are 0.1 to 1 µM, greater than 95%, greater than 95% and 0.1 to 1 µM.
For `C[C@@H]1CN(c2cccc(-c3csc(NC(=O)CNC(=O)c4cccc(C5(C(F)F)CCOC5)c4)n3)c2)C[C@H](C)O1` (stereo partly drawn) [Compound 345, 3-(3-(difluoromethyl)tetrahydrofuran-3-yl)-N-(2-((4-(3-((cis)-2,6-dimethylmorpholino)phenyl)thiazol-2-yl)amino)-2-oxoethyl)benzamide], on BRG-1, the IC50 was in the range of 1 to 5 µM and the Emax is greater than 95%. Further, at BRM, the “BRM Max % Inhibition” value was greater than 95% and the IC50 is less than 0.1 µM.
On the same counts, the results for `CC1COCc2ccc(C(=O)NCC(=O)Nc3nc(-c4cccc(N5C[C@@H](C)O[C@@H](C)C5)n4)cs3)cc21` (stereo partly drawn) [Compound 346, N-(2-((4-(6-((cis)-2,6-dimethylmorpholino)pyridin-2-yl)thiazol-2-yl)amino)-2-oxoethyl)-4-methylisochromane-6-carboxamide] are 0.1 to 1 µM, greater than 95%, greater than 95% and less than 0.1 µM.
On the same counts, the results for `C[C@@H]1CN(c2cc(-c3csc(NC(=O)CNC(=O)c4ccc5c(c4)[C@](C)(C#N)COC5)n3)ccn2)C[C@H](C)O1` [Compound 347, (R)-4-cyano-N-(2-((4-(2-((cis)-2,6-dimethylmorpholino)pyridin-4-yl)thiazol-2-yl)amino)-2-oxoethyl)-4-methylisochromane-6-carboxamide] are less than 0.1 µM, greater than 95%, greater than 95% and less than 0.1 µM.
Consider `C[C@@]1(C#N)COCc2ccc(C(=O)NCC(=O)Nc3nc(-c4cccc(N5CC6(CCO6)C5)c4)cs3)cc21` [Compound 348, (R)-N-(2-((4-(3-(1-oxa-6-azaspiro[3.3]heptan-6-yl)phenyl)thiazol-2-yl)amino)-2-oxoethyl)-4-cyano-4-methylisochromane-6-carboxamide], for which, at BRG-1, the IC50 fell in the range of 0.1 to 1 µM and the Emax was greater than 95%. Also, on BRM, the “BRM Max % Inhibition” value is greater than 95% and the concentration for half-maximal inhibition (IC50) is less than 0.1 µM.
On the same counts, the results for `C[C@@H]1CN(c2cccc(-c3csc(NC(=O)CNC(=O)c4ccc5c(c4)[C@]4(CCO4)COC5)n3)n2)C[C@H](C)O1` [Compound 349, (R)-N-(2-((4-(6-((cis)-2,6-dimethylmorpholino)pyridin-2-yl)thiazol-2-yl)amino)-2-oxoethyl)spiro[isochromane-4,2′-oxetane]-6-carboxamide] are 0.1 to 1 µM, greater than 95%, greater than 95% and less than 0.1 µM.
On the same counts, the results for `C[C@@H]1CN(c2cccc(-c3csc(NC(=O)CNC(=O)c4ccc5c(c4)[C@@]4(CCO4)COC5)n3)n2)C[C@H](C)O1` [Compound 350, (S)-N-(2-((4-(6-((cis)-2,6-dimethylmorpholino)pyridin-2-yl)thiazol-2-yl)amino)-2-oxoethyl)spiro[isochromane-4,2′-oxetane]-6-carboxamide] are 1 to 5 µM, greater than 95%, greater than 95% and less than 0.1 µM.
`CC1CCN1c1cccc(-c2csc(NC(=O)CNC(=O)c3ccc4c(c3)[C@](C)(C#N)COC4)n2)c1` (stereo partly drawn) [Compound 351, (4R)-4-cyano-4-methyl-N-(2-((4-(3-(2-methylazetidin-1-yl)phenyl)thiazol-2-yl)amino)-2-oxoethyl)isochromane-6-carboxamide]: on BRG-1, the half-maximal inhibitory concentration (IC50) is less than 0.1 µM and the Emax was greater than 95%. At BRM, the “BRM Max % Inhibition” value is greater than 95% and the IC50 is less than 0.1 µM.
`C[C@@]1(C#N)COCc2ccc(C(=O)NCC(=O)Nc3nc(-c4cc(F)c5c(c4)CCO5)cs3)cc21` [Compound 352, (R)-4-cyano-N-(2-((4-(7-fluoro-2,3-dihydrobenzofuran-5-yl)thiazol-2-yl)amino)-2-oxoethyl)-4-methylisochromane-6-carboxamide]: on BRG-1, the IC50 is less than 0.1 µM and the Emax was greater than 95%. At BRM, the “BRM Max % Inhibition” value is given as greater than 95% and the IC50 was less than 0.1 µM.
As for `C[C@@]1(C#N)COCc2ccc(C(=O)NCC(=O)Nc3nc(-c4cc(F)c5c(c4)OCC5)cs3)cc21` [Compound 353, (R)-4-cyano-N-(2-((4-(4-fluoro-2,3-dihydrobenzofuran-6-yl)thiazol-2-yl)amino)-2-oxoethyl)-4-methylisochromane-6-carboxamide], at BRG-1, the IC50 was less than 0.1 µM and the Emax was greater than 95%. On BRM, the “BRM Max % Inhibition” value is greater than 95% and the 50% inhibitory concentration (IC50) is less than 0.1 µM.
As to `COC(=O)N1CCC[C@@H](c2csc(NC(=O)CNC(=O)c3ccc4c(c3)[C@](C)(C#N)COC4)n2)C1` [Compound 355, methyl (R)-3-(2-(2-((R)-4-cyano-4-methylisochromane-6-carboxamido)acetamido)thiazol-4-yl)piperidine-1-carboxylate], at BRG-1, the IC50 was 0.1 to 1 µM and the Emax is greater than 95%. Moreover, on BRM, the “BRM Max % Inhibition” value was greater than 95% and the IC50 is less than 0.1 µM.
On the same counts, the results for `CC1(F)COCc2ccc(C(=O)NCC(=O)Nc3nc(-c4cccc(N5CCC5)c4)cs3)cc21` (centres unmarked) [Compound 356, N-(2-((4-(3-(azetidin-1-yl)phenyl)thiazol-2-yl)amino)-2-oxoethyl)-4-fluoro-4-methylisochromane-6-carboxamide] are 0.1 to 1 µM, greater than 95%, greater than 95% and less than 0.1 µM.
On the same counts, the results for `C[C@@H]1CN(c2cccc(-c3csc(NC(=O)CNC(=O)c4cccc([C@]5(F)C[C@@H](F)C5)c4)n3)n2)C[C@H](C)O1` [Compound 357, 3-((1S,3S)-1,3-difluorocyclobutyl)-N-(2-((4-(6-((cis)-2,6-dimethylmorpholino)pyridin-2-yl)thiazol-2-yl)amino)-2-oxoethyl)benzamide] are 0.1 to 1 µM, greater than 90%, greater than 90% and 0.1 to 1 µM.
On the same counts, the results for `C[C@@H]1CN(c2cccc(-c3csc(NC(=O)CNC(=O)c4cccc([C@]5(F)C[C@H](F)C5)c4)n3)n2)C[C@H](C)O1` [Compound 358, 3-((1R,3R)-1,3-difluorocyclobutyl)-N-(2-((4-(6-((cis)-2,6-dimethylmorpholino)pyridin-2-yl)thiazol-2-yl)amino)-2-oxoethyl)benzamide] are 0.1 to 1 µM, greater than 95%, greater than 95% and less than 0.1 µM.
